# Measurements from patent US20250388544A1, “HETEROAROMATIC INHIBITORS OF ASTACIN PROTEINASES” (VIVORYON THERAPEUTICS N.V., priority 2019, published 2025).
# How the values were obtained:
# Type in all cases: biochemical
# hMeprin α [1] = molecular target: T1, hMeprin α (Homo sapiens, UniProt Q16819); test: Enzymatic assay, quenched peptide substrate cleavage, method A; conditions: geometric mean (geometric SD factor in parentheses), read-out: Meprin alpha IC50
# T1 sequence (Q16819 66-746): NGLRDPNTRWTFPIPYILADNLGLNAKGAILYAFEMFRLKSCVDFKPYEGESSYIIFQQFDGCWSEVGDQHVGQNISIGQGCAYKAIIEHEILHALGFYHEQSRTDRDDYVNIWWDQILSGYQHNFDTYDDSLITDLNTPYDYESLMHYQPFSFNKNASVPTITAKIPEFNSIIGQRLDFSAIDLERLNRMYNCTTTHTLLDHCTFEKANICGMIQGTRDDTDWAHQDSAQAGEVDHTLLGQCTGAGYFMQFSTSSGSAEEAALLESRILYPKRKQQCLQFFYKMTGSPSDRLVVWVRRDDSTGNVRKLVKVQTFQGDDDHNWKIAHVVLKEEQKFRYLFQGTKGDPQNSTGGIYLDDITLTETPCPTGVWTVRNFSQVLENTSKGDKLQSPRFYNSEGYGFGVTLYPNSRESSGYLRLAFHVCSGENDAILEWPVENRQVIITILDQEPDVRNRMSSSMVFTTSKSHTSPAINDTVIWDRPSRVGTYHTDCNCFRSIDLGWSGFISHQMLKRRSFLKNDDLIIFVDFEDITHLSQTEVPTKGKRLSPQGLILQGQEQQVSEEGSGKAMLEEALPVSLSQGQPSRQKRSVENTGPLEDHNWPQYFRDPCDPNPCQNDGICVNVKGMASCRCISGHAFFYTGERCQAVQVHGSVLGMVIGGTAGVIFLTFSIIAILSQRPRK
# Description: (§1) The determination of enzymatic activity was based on the cleavage of internally quenched peptide substrates. A typical assay of 250 μl total volume measured in black 96 well plates consisted of 100 μl buffer, 50 μl enzyme at a final concentration of 5e-8 M to 2e-10 M, 50 μl substrate (0.15 to 80 μM, in buffer, 0.5% DMSO) and 50 μl inhibitor solution (in buffer, 1% DMSO). In case of 125 μl assay volume (black 96 half area well plates) all volumes were cut in half. Enzymatic activity of ADAMs was measured in 384 well plates with 60 μl total assay volume consisting of 20 μl inhibitor, 20 μl buffer, 10 μl enzyme and 10 μl substrate.
# (§2) Based on method B Ki^(app) values were determined using Morrison's equation. All measurements were performed using a fluorescence plate reader (FLUOSTAR OPTIMA, BMG Labtech) at 30° C. The kinetic parameters were determined at least in duplicates on separate days. The excitation/emission wavelength was 340/420 nm. The kinetic data was evaluated using GRAFIT software (version 7.0.3, Erithacus Software).
# hMeprin β [2] = molecular target: T2, hMeprin β (Homo sapiens, UniProt Q16820); test: as above; conditions: geometric mean (geometric SD factor in parentheses), read-out: Meprin beta IC50
# T2 sequence (Q16820 62-701): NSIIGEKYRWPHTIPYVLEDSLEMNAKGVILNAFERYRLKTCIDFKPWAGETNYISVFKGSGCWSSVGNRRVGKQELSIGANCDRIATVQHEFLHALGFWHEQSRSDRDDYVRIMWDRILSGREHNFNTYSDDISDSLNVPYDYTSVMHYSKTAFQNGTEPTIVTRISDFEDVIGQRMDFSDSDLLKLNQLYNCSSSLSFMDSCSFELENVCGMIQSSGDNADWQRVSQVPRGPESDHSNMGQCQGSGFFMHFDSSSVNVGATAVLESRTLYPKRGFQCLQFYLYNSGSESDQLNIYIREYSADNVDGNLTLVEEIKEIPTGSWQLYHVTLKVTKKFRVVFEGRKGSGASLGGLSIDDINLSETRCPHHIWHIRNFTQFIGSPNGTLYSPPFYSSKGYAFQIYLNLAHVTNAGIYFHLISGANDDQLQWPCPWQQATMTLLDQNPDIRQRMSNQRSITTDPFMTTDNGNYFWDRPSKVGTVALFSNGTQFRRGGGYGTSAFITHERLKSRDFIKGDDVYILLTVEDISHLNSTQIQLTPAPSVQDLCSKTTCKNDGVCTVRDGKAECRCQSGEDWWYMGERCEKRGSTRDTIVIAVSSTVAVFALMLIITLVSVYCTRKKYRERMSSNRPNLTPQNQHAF
# Description: as §1, §2
# hMeprin α [3] = molecular target: T1, hMeprin α; test: Enzymatic assay, quenched peptide substrate cleavage, method B; conditions: geometric mean (geometric SD factor in parentheses); for Ki: Morrison's equation, read-out: Meprin alpha Ki(app); for IC50: read-out: Meprin alpha IC50
# Description: as §1, §2
# hMeprin β [4] = molecular target: T2, hMeprin β; test: as above; conditions: geometric mean (geometric SD factor in parentheses); for Ki: Morrison's equation, read-out: Meprin beta Ki(app); for IC50: read-out: Meprin beta IC50
# Description: as §1, §2
IC50 (hMeprin α [1]) [nM],IC50 (hMeprin β [2]) [nM],Ki (hMeprin α [3]) [nM],IC50 (hMeprin α [3]) [nM],Ki (hMeprin β [4]) [nM],IC50 (hMeprin β [4]) [nM],SMILES
353,42300,–,–,–,–,"O=C(CCn1c(-c2ccccc2)nnc1-c1ccccc1)NO [Example 8, 3-(3,5-Diphenyl-1,2,4-triazol-4-yl)propanehydroxamic acid]"
273,4560,–,–,–,–,"O=C(Cn1c(-c2ccccc2)nc2cccnc21)NO [Example 23, 2-(2-Phenylimidazo[4,5-b]pyridin-3-yl)ethane-hydroxamic acid]"
2280,176,–,–,–,–,"O=C(CNc1c(-c2ccc(C(=O)O)cc2)nc2ccccn12)NO [Example 30, 4-[3-[[2-(Hydroxyamino)-2-oxo-ethyl]amino]-imidazo[1,2-a]pyridin-2-yl]benzoic acid]"
21,154,–,–,–,–,"O=C(Cc1c(-c2ccccc2)nn(-c2ccc(C(=O)O)cc2)c1-c1ccccc1)NO [Example 37, 4-[4-[2-(Hydroxyamino)-2-oxo-ethyl]-3,5-diphenyl-pyrazol-1-yl]benzoic acid]"
1130,28000,701,708,31700,32400,"O=C(CCn1c(-c2ccccc2)nc2ccccc21)NO [Example 14, 3-(2-Phenylbenzimidazol-1-yl)propanehydroxamic acid]"
475,13400,–,–,–,–,"O=C(CCn1c(-c2ccccc2)cc2ccccc21)NO [Example 26, 3-(2-Phenylindol-1-yl)propanehydroxamic acid]"
105,1200,–,–,–,–,"O=C(Cc1c(-c2ccccc2)[nH]c2ccccc12)NO [Example 27, 2-(2-Phenyl-1H-indol-3-yl)ethanehydroxamic acid]"
693,214,–,–,–,–,"O=C(CNc1c(-c2cccc(C(=O)O)c2)nc2ccccn12)NO [Example 31, 3-[3-[[2-(Hydroxyamino)-2-oxo-ethyl]amino]-imidazo[1,2-a]pyridin-2-yl]benzoic acid]"
2,486,–,–,–,–,"O=C(Cc1c(-c2ccccc2)ncn1-c1ccccc1)NO [Example 12, 2-(3,5-Diphenylimidazol-4-yl)ethanehydroxamic acid]"
135,23,90,92,80,81,"O=C(Cc1c(-c2ccc(Cl)c(O)c2F)nc2ccccn12)NO [Example 28, 2-[2-(4-Chloro-2-fluoro-3-hydroxy-phenyl)imidazo-[1,2-a]pyridin-3-yl]ethanehydroxamic acid]"
292,10500,–,–,–,–,"O=C(Cn1nc(-c2ccccc2)cc1-c1ccccc1)NO [Example 5, 2-(3,5-Diphenylpyrazol-1-yl)ethanehydroxamic acid]"
727,15000,–,–,–,–,"O=C(CCn1c(-c2ccccc2)ccc1-c1ccccc1)NO [Example 10, 3-(2,5-Diphenylpyrrol-1-yl)propanehydroxamic acid]"
2,254,–,–,–,–,"O=C(Cc1c(-c2ccccc2)nn(Cc2ccccc2)c1-c1ccccc1)NO [Example 39, 2-(1-Benzyl-3,5-diphenyl-pyrazol-4-yl)ethanehydroxamic acid]"
793,7120,–,–,–,–,"O=C(CNc1c(-c2ccccc2)nc2ccccn12)NO [Example 29, 2-[(2-Phenylimidazo[1,2-a]pyridin-3-yl)amino]-ethanehydroxamic acid]"
16,100,–,–,–,–,"O=C(Cc1c(-c2ccccc2)nn(-c2cccc(C(=O)O)c2)c1-c1ccccc1)NO [Example 38, 3-[4-[2-(Hydroxyamino)-2-oxo-ethyl]-3,5-diphenyl-pyrazol-1-yl]benzoic acid]"
457,15400,–,–,–,–,"O=C(CCn1nc(-c2ccccc2)cc1-c1ccccc1)NO [Example 6, 3-(3,5-Diphenylpyrazol-1-yl)propanehydroxamic acid]"
244,3370,–,–,–,–,"O=C(Cc1c2ccccc2nn1-c1ccccc1)NO [Example 34, 2-(2-Phenylindazol-3-yl)ethanehydroxamic acid]"
6740,3100,–,–,–,–,"O=C(CNc1c(-c2ccccc2)nc2c(C(=O)O)cccn12)NO [Example 33, 3-[[2-(Hydroxyamino)-2-oxo-ethyl]amino]-2-phenyl-imidazo[1,2-a]pyridine-8-carboxylic acid]"
17,2380,–,–,–,–,"O=C(Cc1c(-c2ccccc2)nn(-c2ccccc2)c1-c1ccccc1)NO [Example 36, 2-(1,3,5-Triphenylpyrazol-4-yl)ethanehydroxamic acid]"
